Measured values reported in BindingDB's records for doi:10.1016/s0960-894x(01)00591-1 (University of Maryland, 2001).

Biological target: Guanine deaminase (Oryctolagus cuniculus)
Assay: Binding affinity against Guanine deaminase (guanase) from rabbit liver was determined

SMILES: N=c1nc(N)nc(N)c2c1N(COCCO)CN2
- Ki: 29.7 µM
